Results published in US20240148671A1, “METHODS FOR IMPROVING POULTRY HEALTH” (CORNELL UNIVERSITY, priority 2021, published 2024).
Marks after values point to notes of the source that are not given here.

Legend:
Type in all cases: in vivo, Gallus gallus
[1] = test system: DMT1 (Divalent metal transporter 1); assay: Gene expression (RT-PCR), DMT1; settings: at hatch, b173: compared with the other treatments and the controls, b190: comparator not stated, p<0.05
Experimental: (§1) The pure resveratrol and pterostilbene were individually diluted in 18 MΩ H2O. The intra-amniotic administration followed the methodology previously described. On the 17th day of embryonic development, the eggs with viable embryos (n=60) were randomly allocated into 6 groups (n=10) with a similar weight frequency distribution. For the intra-amniotic treatment, 1 mL of solution per egg was injected into the amniotic fluid (via candling) with the aid of a 21-gauge needle. […]
(§2) The RNA was isolated as described previously (RNeasy Mini Kit, Qiagen Inc., Valencia, CA, USA), and 30 mg of the duodenal tissue or liver tissue (n =8) was used to extract the total RNA. […] Finally, the RNA was eluted in 50 μL of RNase-free water and quantified by absorbance at 260 and 280 nm.
(§3) RT-PCR was conducted as described. […] The cDNA content was assessed by absorbance at 260 and 280 nm, with an extinction coefficient of 33 (single-stranded DNA). Genomic DNA contamination was evaluated via a real-time RT-PCR assay for the reference gene samples [17,18,30]. […]
(§4) The procedures were performed as previously published. […] The optimal MgCl2 concentration achieved, for each reaction, an amplification plot (lowest cycle product, Cp), the uppermost fluorescence intensity and the steepest amplification slope. […]

[2] = test system: AT1R (angiotensin II receptor type I); assay: Gene expression (RT-PCR), AT1R; settings: intestinal and heart gene expression (FIG. 2); b176: compared with the no injection control; b192: comparator not stated; b210: between the experimental groups
Experimental: as §1, §2, §3, §4

TNF-α = assay: Gene expression (RT-PCR), TNF-α; settings: at hatch; b175, b210: compared with the 5% inulin control group; b192: comparator not stated; p<0.05
Experimental: as §1, §2, §3, §4

[3] = Body weight, cecum weight and cecum:body weight ratio; settings: intra-amniotic 1 mL/egg on day 17; at hatch (day 21); mean ± SEM, n=8
Experimental: (§5) The pure resveratrol and pterostilbene were individually diluted in 18 MΩ H2O. The intra-amniotic administration followed the methodology previously described. On the 17th day of embryonic development, the eggs with viable embryos (n=60) were randomly allocated into 6 groups (n=10) with a similar weight frequency distribution. For the intra-amniotic treatment, 1 mL of solution per egg was injected into the amniotic fluid (via candling) with the aid of a 21-gauge needle. After the procedure, the injection sites were sealed with cellophane tape, and the eggs were distributed into six groups: (1) no injection; (2) 18 MΩ H2O; (3) 5% inulin; (4) 5% resveratrol; (5) 5% pterostilbene; and (6) synergistic: 4.75% resveratrol and 0.25% pterostilbene. […] The eggs were equally distributed in each incubator location to reduce possible allocation bias. Upon hatching (21 days), the hatchlings were euthanized by CO2 exposure, and the blood, liver, heart, pectoral muscle, small intestine and cecum were obtained.

[4] = Glycogen in pectoral muscle; settings: intra-amniotic 1 mL/egg on day 17, at hatch, mean ± SEM, n=8
Experimental: as §5

AT1R gene expression [2]: downregulated
Structure (SMILES): Oc1ccc(C=Cc2cc(O)cc(O)c2)cc1 [5% Resveratrol, Resveratrol]
DMT1 relative gene expression ([1]; listed as 5% resveratrol): lowest
DMT1 relative gene expression ([1]; listed as resveratrol): downregulated significantly
TNF-α gene expression (TNF-α): downregulated
Body Weight Average (g) [3]: 47.1 ± 1.4^a g
Cecum Weight Average (g) [3]: 0.6 ± 0.0^a g
Cecum:Body Weight Ratio [3]: 0.013 ± 0.001^a
Glycogen (mg/g) [4]: 0.019 ± 0.004^a mg/g
